Key:
Assay in all cases: radiometric filter-binding kinase assay, Kinase HotSpot
Settings in all cases: compound 0.5 µM; ATP 10 µM
PDGFRB (human) = PDGFRB (human) (UniProt P09619)
CDK5 CDK5R1 p35 (human) = CDK5 CDK5R1 p35 (human) (UniProt Q00535+Q15078)
PTK2 (human) = PTK2 (human) (UniProt Q05397)
MAP3K14 (human) = MAP3K14 (human) (UniProt Q99558)
MAPK11 (human) = MAPK11 (human) (UniProt Q15759)
TTK (human) = TTK (human) (UniProt P33981)
ROCK1 (human) = ROCK1 (human) (UniProt Q13464)
EPHB1 (human) = EPHB1 (human) (UniProt P54762)
Chain of EPHB1 (human) (P54762 whole entry, looked up): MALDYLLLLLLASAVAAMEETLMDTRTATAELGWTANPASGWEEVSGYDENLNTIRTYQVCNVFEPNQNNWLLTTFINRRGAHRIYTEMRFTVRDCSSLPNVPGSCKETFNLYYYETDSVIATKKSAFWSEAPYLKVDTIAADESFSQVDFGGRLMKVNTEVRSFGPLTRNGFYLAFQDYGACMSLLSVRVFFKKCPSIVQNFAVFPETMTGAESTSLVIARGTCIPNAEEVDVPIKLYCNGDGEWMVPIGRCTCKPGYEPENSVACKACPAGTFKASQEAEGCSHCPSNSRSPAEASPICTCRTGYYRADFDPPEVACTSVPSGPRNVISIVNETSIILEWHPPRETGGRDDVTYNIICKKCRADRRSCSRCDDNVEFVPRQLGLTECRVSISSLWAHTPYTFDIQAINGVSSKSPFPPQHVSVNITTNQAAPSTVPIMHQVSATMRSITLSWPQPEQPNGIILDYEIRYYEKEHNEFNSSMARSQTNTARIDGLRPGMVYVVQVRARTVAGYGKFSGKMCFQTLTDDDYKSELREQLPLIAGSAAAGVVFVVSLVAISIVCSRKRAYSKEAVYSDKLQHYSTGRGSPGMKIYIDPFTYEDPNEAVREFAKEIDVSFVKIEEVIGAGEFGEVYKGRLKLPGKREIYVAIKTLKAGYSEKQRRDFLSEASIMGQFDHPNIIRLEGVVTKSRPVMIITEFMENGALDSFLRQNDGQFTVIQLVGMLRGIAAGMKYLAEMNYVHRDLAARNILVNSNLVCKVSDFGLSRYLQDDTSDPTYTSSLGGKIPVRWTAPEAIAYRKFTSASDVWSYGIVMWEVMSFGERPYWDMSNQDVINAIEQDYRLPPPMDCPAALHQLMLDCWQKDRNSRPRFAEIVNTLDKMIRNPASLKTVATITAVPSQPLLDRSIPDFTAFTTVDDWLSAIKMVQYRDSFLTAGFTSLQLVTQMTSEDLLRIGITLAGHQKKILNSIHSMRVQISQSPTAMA

MYLK2 (human) = MYLK2 (human) (UniProt Q9H1R3)
PKN1 (human) = PKN1 (human) (UniProt Q16512)
PRKCE (human) = PRKCE (human) (UniProt Q02156)
PKN2 (human) = PKN2 (human) (UniProt Q16513)
AURKA (human) = AURKA (human) (UniProt O14965)
MERTK (human) = MERTK (human) (UniProt Q12866)
DYRK2 (human) = DYRK2 (human) (UniProt Q92630)
IRAK1 (human) = IRAK1 (human) (UniProt P51617)
PAK3 (human) = PAK3 (human) (UniProt O75914)
MAPKAPK5 (human) = MAPKAPK5 (human) (UniProt Q8IW41)
CDC42BPA (human) = CDC42BPA (human) (UniProt Q5VT25)
CDK6 CCND3 (human) = CDK6 CCND3 (human) (UniProt P30281+Q00534)
Chain of CDK6 CCND3 (human) (P30281 whole entry, looked up): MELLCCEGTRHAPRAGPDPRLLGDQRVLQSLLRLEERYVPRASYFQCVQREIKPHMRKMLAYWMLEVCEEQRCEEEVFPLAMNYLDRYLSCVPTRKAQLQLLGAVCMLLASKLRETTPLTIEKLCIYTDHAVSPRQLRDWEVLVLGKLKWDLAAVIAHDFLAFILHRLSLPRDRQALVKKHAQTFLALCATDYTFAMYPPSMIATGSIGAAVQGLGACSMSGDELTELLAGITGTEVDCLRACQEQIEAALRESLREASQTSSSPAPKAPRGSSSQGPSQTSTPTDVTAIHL
Chain of CDK6 CCND3 (human) (Q00534 whole entry, looked up): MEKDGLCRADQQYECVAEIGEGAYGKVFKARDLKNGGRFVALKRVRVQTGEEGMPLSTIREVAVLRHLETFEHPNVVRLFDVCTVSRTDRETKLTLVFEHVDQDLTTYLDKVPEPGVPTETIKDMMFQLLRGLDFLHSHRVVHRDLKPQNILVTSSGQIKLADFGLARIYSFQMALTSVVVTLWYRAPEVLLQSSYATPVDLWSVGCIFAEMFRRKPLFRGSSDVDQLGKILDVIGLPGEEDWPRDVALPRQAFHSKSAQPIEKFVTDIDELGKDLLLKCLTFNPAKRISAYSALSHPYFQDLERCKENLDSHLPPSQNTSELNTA

PRKCI (human) = PRKCI (human) (UniProt P41743)
MAP3K10 (human) = MAP3K10 (human) (UniProt Q02779)
CAMKK2 (human) = CAMKK2 (human) (UniProt Q96RR4)
TSSK2 (human) = TSSK2 (human) (UniProt Q96PF2)
CDK1 CCNB1 (human) = CDK1 CCNB1 (human) (UniProt P06493+P14635)
FGFR2 (human) = FGFR2 (human) (UniProt P21802)
CDK2 CCNA2 (human) = CDK2 CCNA2 (human) (UniProt P24941+P20248)
RIPK2 (human) = RIPK2 (human) (UniProt O43353)
CDK9 CCNK (human) = CDK9 CCNK (human) (UniProt O75909+P50750)
TAOK1 (human) = TAOK1 (human) (UniProt Q7L7X3)
CAMK1 (human) = CAMK1 (human) (UniProt Q14012)
MAPKAPK3 (human) = MAPKAPK3 (human) (UniProt Q16644)
Chain of MAPKAPK3 (human) (Q16644 whole entry, looked up): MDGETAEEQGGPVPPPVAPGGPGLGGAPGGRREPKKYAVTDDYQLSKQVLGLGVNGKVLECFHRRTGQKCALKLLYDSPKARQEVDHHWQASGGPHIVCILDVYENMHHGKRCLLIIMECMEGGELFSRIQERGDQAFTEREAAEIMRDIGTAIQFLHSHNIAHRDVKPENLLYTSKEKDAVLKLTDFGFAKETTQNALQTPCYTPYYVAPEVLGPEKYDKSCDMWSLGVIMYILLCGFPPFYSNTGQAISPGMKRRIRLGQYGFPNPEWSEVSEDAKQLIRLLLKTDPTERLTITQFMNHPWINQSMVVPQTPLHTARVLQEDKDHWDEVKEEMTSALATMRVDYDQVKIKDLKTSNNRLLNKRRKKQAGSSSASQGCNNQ

TGFBR2 (human) = TGFBR2 (human) (UniProt P37173)
Chain of TGFBR2 (human) (P37173 whole entry, looked up): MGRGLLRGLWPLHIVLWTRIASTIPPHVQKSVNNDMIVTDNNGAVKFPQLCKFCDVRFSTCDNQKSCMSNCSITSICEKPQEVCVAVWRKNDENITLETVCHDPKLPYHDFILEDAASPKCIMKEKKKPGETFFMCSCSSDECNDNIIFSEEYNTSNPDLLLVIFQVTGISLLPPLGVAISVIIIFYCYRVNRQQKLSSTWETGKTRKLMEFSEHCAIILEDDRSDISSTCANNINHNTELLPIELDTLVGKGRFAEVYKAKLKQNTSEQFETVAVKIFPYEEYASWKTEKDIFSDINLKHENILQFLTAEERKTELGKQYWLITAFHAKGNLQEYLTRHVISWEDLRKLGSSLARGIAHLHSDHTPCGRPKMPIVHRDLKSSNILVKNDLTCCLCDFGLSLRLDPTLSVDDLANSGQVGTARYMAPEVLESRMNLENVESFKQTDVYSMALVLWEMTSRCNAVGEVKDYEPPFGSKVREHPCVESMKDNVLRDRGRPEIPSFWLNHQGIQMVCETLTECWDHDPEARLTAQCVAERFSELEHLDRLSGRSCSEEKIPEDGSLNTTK

MARK1 (human) = MARK1 (human) (UniProt Q9P0L2)
GRK7 (human) = GRK7 (human) (UniProt Q8WTQ7)
Chain of GRK7 (human) (Q8WTQ7 whole entry, looked up): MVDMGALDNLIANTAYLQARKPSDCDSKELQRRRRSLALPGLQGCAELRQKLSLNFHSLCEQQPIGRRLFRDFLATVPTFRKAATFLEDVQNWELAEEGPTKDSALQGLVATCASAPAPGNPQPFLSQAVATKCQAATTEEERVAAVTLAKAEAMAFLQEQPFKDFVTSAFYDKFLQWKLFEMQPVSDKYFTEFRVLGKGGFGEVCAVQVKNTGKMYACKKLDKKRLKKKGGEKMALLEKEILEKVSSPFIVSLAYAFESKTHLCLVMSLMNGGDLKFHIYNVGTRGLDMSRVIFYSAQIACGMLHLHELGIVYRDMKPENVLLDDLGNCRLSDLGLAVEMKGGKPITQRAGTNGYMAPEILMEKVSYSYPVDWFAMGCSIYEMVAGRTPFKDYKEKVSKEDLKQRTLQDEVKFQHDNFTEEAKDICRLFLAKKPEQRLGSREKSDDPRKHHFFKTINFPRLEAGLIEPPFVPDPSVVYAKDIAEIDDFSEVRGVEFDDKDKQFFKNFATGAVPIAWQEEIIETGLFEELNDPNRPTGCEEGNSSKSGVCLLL

CSF1R (human) = CSF1R (human) (UniProt P07333)
TNK2 (human) = TNK2 (human) (UniProt Q07912)
ERBB4 (human) = ERBB4 (human) (UniProt Q15303)
NEK11 (human) = NEK11 (human) (UniProt Q8NG66)
CDK7 CCNH MNAT1 (human) = CDK7 CCNH MNAT1 (human) (UniProt P50613+P51948+P51946)
Chain of CDK7 CCNH MNAT1 (human) (P50613 whole entry, looked up): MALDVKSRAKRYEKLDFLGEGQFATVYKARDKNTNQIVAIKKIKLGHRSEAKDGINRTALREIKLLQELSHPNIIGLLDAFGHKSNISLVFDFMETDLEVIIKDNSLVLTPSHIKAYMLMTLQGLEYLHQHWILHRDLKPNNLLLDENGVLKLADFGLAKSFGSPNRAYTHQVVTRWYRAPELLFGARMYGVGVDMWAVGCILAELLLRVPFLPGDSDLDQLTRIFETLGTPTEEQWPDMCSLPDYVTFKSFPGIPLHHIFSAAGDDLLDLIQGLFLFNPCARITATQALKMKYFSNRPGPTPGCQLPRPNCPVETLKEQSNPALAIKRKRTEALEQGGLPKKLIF
Chain of CDK7 CCNH MNAT1 (human) (P51946 whole entry, looked up): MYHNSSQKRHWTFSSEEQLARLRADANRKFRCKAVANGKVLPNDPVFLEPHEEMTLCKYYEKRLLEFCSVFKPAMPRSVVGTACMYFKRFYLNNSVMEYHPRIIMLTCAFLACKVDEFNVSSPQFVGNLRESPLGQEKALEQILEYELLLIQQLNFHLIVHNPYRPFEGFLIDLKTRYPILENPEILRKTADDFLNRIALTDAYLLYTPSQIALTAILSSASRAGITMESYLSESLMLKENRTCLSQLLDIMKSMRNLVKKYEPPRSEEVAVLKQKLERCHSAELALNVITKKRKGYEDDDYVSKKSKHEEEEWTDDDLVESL
Chain of CDK7 CCNH MNAT1 (human) (P51948 whole entry, looked up): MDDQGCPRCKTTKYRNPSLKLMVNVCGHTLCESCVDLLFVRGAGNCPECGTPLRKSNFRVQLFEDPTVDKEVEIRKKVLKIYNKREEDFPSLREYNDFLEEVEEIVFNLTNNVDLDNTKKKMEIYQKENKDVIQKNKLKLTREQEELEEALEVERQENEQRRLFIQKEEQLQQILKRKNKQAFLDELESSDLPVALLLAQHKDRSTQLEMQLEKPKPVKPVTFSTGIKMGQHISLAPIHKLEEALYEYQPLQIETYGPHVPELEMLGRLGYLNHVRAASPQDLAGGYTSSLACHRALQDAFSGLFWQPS

MAP3K5 (human) = MAP3K5 (human) (UniProt Q99683)

Chain of TTK (human) (P33981 whole entry, looked up): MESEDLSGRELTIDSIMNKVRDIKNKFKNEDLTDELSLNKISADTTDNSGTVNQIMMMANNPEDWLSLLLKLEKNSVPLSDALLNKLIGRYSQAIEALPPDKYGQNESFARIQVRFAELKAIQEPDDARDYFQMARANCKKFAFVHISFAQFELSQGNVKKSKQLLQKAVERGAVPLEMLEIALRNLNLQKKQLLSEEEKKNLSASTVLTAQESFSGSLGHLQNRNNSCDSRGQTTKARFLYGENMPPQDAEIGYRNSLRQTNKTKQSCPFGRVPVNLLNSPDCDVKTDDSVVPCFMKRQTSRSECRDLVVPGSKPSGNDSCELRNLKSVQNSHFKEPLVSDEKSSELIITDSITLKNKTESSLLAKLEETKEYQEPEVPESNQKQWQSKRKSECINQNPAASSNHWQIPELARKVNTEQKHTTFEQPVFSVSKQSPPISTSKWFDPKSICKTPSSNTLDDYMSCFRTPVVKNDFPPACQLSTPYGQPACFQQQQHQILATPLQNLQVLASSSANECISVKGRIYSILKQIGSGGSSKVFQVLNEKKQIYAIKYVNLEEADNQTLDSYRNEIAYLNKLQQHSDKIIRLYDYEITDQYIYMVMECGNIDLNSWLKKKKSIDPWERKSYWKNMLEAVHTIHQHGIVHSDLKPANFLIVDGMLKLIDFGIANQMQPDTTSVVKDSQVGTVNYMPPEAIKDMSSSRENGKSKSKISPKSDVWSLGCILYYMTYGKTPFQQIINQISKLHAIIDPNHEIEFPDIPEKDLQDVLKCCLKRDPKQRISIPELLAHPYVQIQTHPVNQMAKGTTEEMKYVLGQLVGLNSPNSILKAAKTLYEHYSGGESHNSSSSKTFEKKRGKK

## COc1ccc(C(=O)Nc2sc3c(c2C(N)=O)CCCC3)cc1OC
PDGFRB (human)
  residual activity: 90.9%
CDK5 CDK5R1 p35 (human)
  residual activity: 90.8%
PTK2 (human)
  residual activity: 116%
MAP3K14 (human)
  residual activity: 88%
MAPK11 (human)
  residual activity: 104%
TTK (human)
  residual activity: 95.6%
ROCK1 (human)
  residual activity: 107%
EPHB1 (human)
  residual activity: 95%
MYLK2 (human)
  residual activity: 94.4%
PKN1 (human)
  residual activity: 96.3%
PRKCE (human)
  residual activity: 95%
PKN2 (human)
  residual activity: 98.5%
AURKA (human)
  residual activity: 97.9%
MERTK (human)
  residual activity: 85.4%
DYRK2 (human)
  residual activity: 92%
IRAK1 (human)
  residual activity: 79.8%
PAK3 (human)
  residual activity: 96.2%
MAPKAPK5 (human)
  residual activity: 86.4%
CDC42BPA (human)
  residual activity: 81.8%
CDK6 CCND3 (human)
  residual activity: 94.9%
PRKCI (human)
  residual activity: 91.8%
MAP3K10 (human)
  residual activity: 96.6%
CAMKK2 (human)
  residual activity: 96.9%
TSSK2 (human)
  residual activity: 94.6%
CDK1 CCNB1 (human)
  residual activity: 94.3%
FGFR2 (human)
  residual activity: 100%
CDK2 CCNA2 (human)
  residual activity: 103%
RIPK2 (human)
  residual activity: 76.5%
CDK9 CCNK (human)
  residual activity: 85.7%
TAOK1 (human)
  residual activity: 95.5%
CAMK1 (human)
  residual activity: 90.9%
MAPKAPK3 (human)
  residual activity: 97.2%
TGFBR2 (human)
  residual activity: 134%
MARK1 (human)
  residual activity: 97.9%
GRK7 (human)
  residual activity: 95.5%
CSF1R (human)
  residual activity: 90.2%
TNK2 (human)
  residual activity: 93.4%
ERBB4 (human)
  residual activity: 97.2%
NEK11 (human)
  residual activity: 102%
CDK7 CCNH MNAT1 (human)
  residual activity: 99.9%
MAP3K5 (human)
  residual activity: 94.8%

## CS(=O)(=O)CCNCc1ccc(-c2ccc3ncnc(Nc4ccc(OCc5cccc(F)c5)c(Cl)c4)c3c2)o1
PDGFRB (human)
  residual activity: 92%
CDK5 CDK5R1 p35 (human)
  residual activity: 103%
PTK2 (human)
  residual activity: 104%
MAP3K14 (human)
  residual activity: 109%
MAPK11 (human)
  residual activity: 101%
TTK (human)
  residual activity: 102%
ROCK1 (human)
  residual activity: 108%
EPHB1 (human)
  residual activity: 104%
MYLK2 (human)
  residual activity: 108%
PKN1 (human)
  residual activity: 106%
PRKCE (human)
  residual activity: 98%
PKN2 (human)
  residual activity: 92%
AURKA (human)
  residual activity: 81.5%
MERTK (human)
  residual activity: 95.4%
DYRK2 (human)
  residual activity: 102%
IRAK1 (human)
  residual activity: 98.8%
PAK3 (human)
  residual activity: 105%
MAPKAPK5 (human)
  residual activity: 92.8%
CDC42BPA (human)
  residual activity: 88.2%
CDK6 CCND3 (human)
  residual activity: 120%
PRKCI (human)
  residual activity: 106%
MAP3K10 (human)
  residual activity: 108%
CAMKK2 (human)
  residual activity: 101%
TSSK2 (human)
  residual activity: 89.9%
CDK1 CCNB1 (human)
  residual activity: 100%
FGFR2 (human)
  residual activity: 96.4%
CDK2 CCNA2 (human)
  residual activity: 94.5%
RIPK2 (human)
  residual activity: 110%
CDK9 CCNK (human)
  residual activity: 103%
TAOK1 (human)
  residual activity: 98.8%
CAMK1 (human)
  residual activity: 102%
MAPKAPK3 (human)
  residual activity: 103%
TGFBR2 (human)
  residual activity: 96.1%
MARK1 (human)
  residual activity: 149%
GRK7 (human)
  residual activity: 95.8%
CSF1R (human)
  residual activity: 106%
TNK2 (human)
  residual activity: 97.5%
ERBB4 (human)
  residual activity: 11.2%
NEK11 (human)
  residual activity: 107%
CDK7 CCNH MNAT1 (human)
  residual activity: 109%
MAP3K5 (human)
  residual activity: 105%

## COc1cc2ncnc(Nc3ccc(Oc4ccccc4)cc3)c2cc1OC
PDGFRB (human)
  residual activity: 95.6%
CDK5 CDK5R1 p35 (human)
  residual activity: 115%
PTK2 (human)
  residual activity: 98.1%
MAP3K14 (human)
  residual activity: 93%
MAPK11 (human)
  residual activity: 105%
TTK (human)
  residual activity: 90%
ROCK1 (human)
  residual activity: 102%
EPHB1 (human)
  residual activity: 108%
MYLK2 (human)
  residual activity: 101%
PKN1 (human)
  residual activity: 97.3%
PRKCE (human)
  residual activity: 94.6%
PKN2 (human)
  residual activity: 93.6%
AURKA (human)
  residual activity: 79.2%
MERTK (human)
  residual activity: 51.2%
DYRK2 (human)
  residual activity: 104%
IRAK1 (human)
  residual activity: 122%
PAK3 (human)
  residual activity: 98.1%
MAPKAPK5 (human)
  residual activity: 98%
CDC42BPA (human)
  residual activity: 95.4%
CDK6 CCND3 (human)
  residual activity: 108%
PRKCI (human)
  residual activity: 108%
MAP3K10 (human)
  residual activity: 96.7%
CAMKK2 (human)
  residual activity: 104%
TSSK2 (human)
  residual activity: 103%
CDK1 CCNB1 (human)
  residual activity: 81.2%
FGFR2 (human)
  residual activity: 93.7%
CDK2 CCNA2 (human)
  residual activity: 100%
RIPK2 (human)
  residual activity: 55.5%
CDK9 CCNK (human)
  residual activity: 96.7%
TAOK1 (human)
  residual activity: 105%
CAMK1 (human)
  residual activity: 105%
MAPKAPK3 (human)
  residual activity: 98.9%
TGFBR2 (human)
  residual activity: 137%
MARK1 (human)
  residual activity: 93.3%
GRK7 (human)
  residual activity: 103%
CSF1R (human)
  residual activity: 100%
TNK2 (human)
  residual activity: 49%
ERBB4 (human)
  residual activity: 8.79%
NEK11 (human)
  residual activity: 74.8%
CDK7 CCNH MNAT1 (human)
  residual activity: 102%
MAP3K5 (human)
  residual activity: 107%

## Fc1ccc(-c2nc3n(c2-c2ccncc2)CCS3)cc1
PDGFRB (human)
  residual activity: 107%
CDK5 CDK5R1 p35 (human)
  residual activity: 97.8%
PTK2 (human)
  residual activity: 102%
MAP3K14 (human)
  residual activity: 103%
MAPK11 (human)
  residual activity: 97.2%
TTK (human)
  residual activity: 100%
ROCK1 (human)
  residual activity: 103%
EPHB1 (human)
  residual activity: 106%
MYLK2 (human)
  residual activity: 101%
PKN1 (human)
  residual activity: 101%
PRKCE (human)
  residual activity: 97.7%
PKN2 (human)
  residual activity: 96.3%
AURKA (human)
  residual activity: 92.1%
MERTK (human)
  residual activity: 88.7%
DYRK2 (human)
  residual activity: 101%
IRAK1 (human)
  residual activity: 125%
PAK3 (human)
  residual activity: 104%
MAPKAPK5 (human)
  residual activity: 97.2%
CDC42BPA (human)
  residual activity: 88.7%
CDK6 CCND3 (human)
  residual activity: 108%
PRKCI (human)
  residual activity: 90.9%
MAP3K10 (human)
  residual activity: 101%
CAMKK2 (human)
  residual activity: 99.9%
TSSK2 (human)
  residual activity: 93.2%
CDK1 CCNB1 (human)
  residual activity: 91.4%
FGFR2 (human)
  residual activity: 106%
CDK2 CCNA2 (human)
  residual activity: 101%
RIPK2 (human)
  residual activity: 84.7%
CDK9 CCNK (human)
  residual activity: 101%
TAOK1 (human)
  residual activity: 97.7%
CAMK1 (human)
  residual activity: 107%
MAPKAPK3 (human)
  residual activity: 95.5%
TGFBR2 (human)
  residual activity: 137%
MARK1 (human)
  residual activity: 102%
GRK7 (human)
  residual activity: 104%
CSF1R (human)
  residual activity: 103%
TNK2 (human)
  residual activity: 98%
ERBB4 (human)
  residual activity: 83%
NEK11 (human)
  residual activity: 71.4%
CDK7 CCNH MNAT1 (human)
  residual activity: 95%
MAP3K5 (human)
  residual activity: 105%
